The source of these data is patent publication US20250288704A1, “CXCR4-LIGANDS FOR DIAGNOSTIC AND THERAPEUTIC USE AND PRECURSORS THEREOF” (priority 2021, published 2025).

Like-named read-outs stand apart in the source and are kept apart here. Positions of bridges follow the written chain, without caps; N, C: chain ends. Non-standard residues stand in square brackets, D forms with d. Residues, ends and D or L forms follow the SMILES beside them. Groups on a side chain read outwards from the residue. Chains are numbered I, II in the order given. *: point of attachment. X2 = OC[C@H]1O[C@@H](O[C@H]2[C@H](O)[C@@H](O)[C@H](*)O[C@@H]2CO)[C@H](O)[C@@H](O)[C@H]1O; X8 = NCCNCC(CNCCN)C(=O)NC[C@@H](NC(=O)CCC(NC(=O)N[C@H](CCC(=O)O)C(=O)O)C(=O)O)C(=O)*; X5 = CC(C)(C)[Si](F)(c1ccc(C[N+](C)(C)CC(=O)*)cc1)C(C)(C)C; DOTA = O=C(O)CN1CCN(CC(=O)O)CCN(CC(=O)*)CCN(CC(=O)O)CC1; 2Nal = N[C@@H](Cc1ccc2ccccc2c1)C(=O)O; dNMeOrn = CN[C@H](CCCN)C(=O)O; d(hCys) = N[C@H](CCS)C(=O)O; Mercaptoacetyl = O=C(CS)*; X4 = OCC1OC(*)C(O)C(O)C1O; 4Abz = Nc1ccc(C(=O)O)cc1; dDap = NC[C@@H](N)C(=O)O; Ahx = NCCCCCC(=O)O

In data set [1] the test system is CXCR4-expressing Chem_1 cells. As to the kind of experiment: Determination of internalization, dual tracer with 125I-Fc-131. The format is cell-based. The note with it: for Cell-bound [%] / Internalized [%]: of total cellular activity. The essentials: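 Receptor blockade used AMD3100 (1 mM stock) versus medium-treated wells, triplicate per time point, in Chem_1 cells cultured at 37 °C in DMEM-F12/10% FBS. Activity of supernatant, surface-bound and internalized (1 M NaOH) fractions measured by γ-counter, corrected for non-specific uptake and normalised to standard ligand.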

Data set [2] can be described thus: Octanol/PBS partition coefficient (logD7.4). Format: physicochemical. The note with it: n-octanol/PBS pH 7.4, radiolabeled compound. Here is the method:
The tubes were vortexed at maximum speed for 3 min to ensure equilibrium before centrifugation at 15.000×g for 5 min on a Biofuge 15 from Heraeus Holding GmbH (Osterode, Germany). An aliquot of 100 μL of each fraction was measured in the γ-counter and the log D7.4 calculated as follows: […]

Data set [3] concerns Jurkat tumor-bearing CB-17 SCID mice. As to the kind of experiment: Biodistribution in Jurkat tumor-bearing CB-17 SCID mice. The format is in vivo. The note with it: 1 h p.i. The gist of the method:
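Radioligand (125I, 177Lu, 99mTc, 18F or 68Ga label; roughly 0.5-20 MBq, 0.02-0.20 nmol) was injected intravenously via tail vein. Hosts were CB17-SCID mice with subcutaneous Jurkat tumors of 5-8 mm, 4-10 weeks post-inoculation. Dissected organs were weighed and counted in a γ-counter.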

In data set [4] the target is T1, CXCR4 (Homo sapiens, UniProt P61073). As to the kind of experiment: Determination of IC50: competition with 125I-Fc-131 on CXCR4-positive Jurkat cells.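 Also: test compound at 10^−5 to 10^−11 M competed for 2 h at 8 °C with the radioligand on 400,000 cells per well, bound versus free activity measured by γ-counting.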 The format is binding. The arrangement: CXCR4-positive Jurkat T lymphocyte cells were grown in Gibco's RPMI 1640 GlutaMAX medium; endogenous in cells; host or cells: Jurkat T lymphocyte cells (whole cells in suspension, 400.000 per tube).
T1 sequence (P61073 whole entry): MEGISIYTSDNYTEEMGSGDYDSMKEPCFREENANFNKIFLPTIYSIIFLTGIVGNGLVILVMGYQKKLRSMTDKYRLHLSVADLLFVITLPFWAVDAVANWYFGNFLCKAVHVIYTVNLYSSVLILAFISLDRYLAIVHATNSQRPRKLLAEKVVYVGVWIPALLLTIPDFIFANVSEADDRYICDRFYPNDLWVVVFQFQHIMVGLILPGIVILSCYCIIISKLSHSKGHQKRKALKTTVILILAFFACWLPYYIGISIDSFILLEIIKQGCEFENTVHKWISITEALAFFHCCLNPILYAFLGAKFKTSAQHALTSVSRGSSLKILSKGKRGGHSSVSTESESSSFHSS

Data set [5] can be described thus: Biodistribution in Daudi xenograft bearing CB-17 SCID mice. Format: in vivo. To be noted: mouse, iv, total radioactivity, 1 h p.i., CB-17 SCID female mice.
Data set [6] deals with T1, CXCR4. The experiment in a line: Determination of inverse IC50 (invIC50): radiolabeled peptide displaced by Fc-131 on Jurkat cells.
Protocol: For in vitro experiments, cells were counted in a hemocytometer using trypan blue as contrast agent. The cell suspension was centrifuged, and the pellet resuspended in HBSS (+1 wt % BSA) to a concentration of 2 mio cells/mL. 8×3 polystyrene tubes were loaded with 25 μL of the standard ligand ^125I-Fc-131 (see 4.1, 1.00 nM in HBSS) and 25 μL of the ligand to investigate in the respective concentration (10^−4-10^−10 M, n=3 for each concentration). 200 μL of cell suspension (400.000 cells per well) were added to obtain a final peptide concentration range of 10^−5-10^−11 M. The tubes were cooled for 2 h at 8° C. to prevent internalization. The experiment was stopped by removal of the supernatant. 200 μL HBSS were added onto the cells, the suspension centrifuged, and the supernatant pooled with the respective first fractions. This step was repeated once more before the tubes containing the supernatants and the ones containing the cell pellets were subjected to activity measurement in the γ-counter.
For the determination of inverse IC50 (invIC50) values the protocol for the determination of regular IC50 values was resumed with minor changes. The peptide under investigation was radioactively labeled and a stock solution was prepared in HBSS (2.00 nM). A concentration gradient of the standard ligand Fc-131 was prepared in HBSS (10^−4-10^−10 M). A cell tube was then containing 25 μL of the radioactive peptide solution, 25 μL of the respective Fc-131 solution and 200 μL cell suspension (400.000 cells). The experiment was conducted as described above.
[7] abbreviates: 2,000 pmol cold substance co-injected, 1 mouse.
The mark [8] stands for this setting: co-injection of 1,000 μmol (so in the source) cold substance vs 36 pmol, 1 mouse.

Usually IC50 stands for the point on the concentration scale where inhibition reaches its midpoint. As to `C[C@@H](NC(=O)[C@@H](CCCNC(=N)N)NC(=O)[C@@H](CN)NC(=O)CCCCCNC(=O)[C@@H](CNC(=O)CN1CCN(CC(=O)O)CCN(CC(=O)O)CCN(CC(=O)O)CC1)NC(=O)[C@@H](CCS[C@@H]1O[C@H](CO)[C@@H](O[C@@H]2O[C@H](CO)[C@H](O)[C@H](O)[C@H]2O)[C@H](O)[C@H]1O)NC(=O)C[N+](C)(C)Cc1ccc([Si](F)(C(C)(C)C)C(C)(C)C)cc1)C(=O)Nc1ccc(C(=O)NCCC[C@@H]2C(=O)N[C@@H](CCCNC(=N)N)C(=O)N[C@@H](Cc3ccc4ccccc4c3)C(=O)NCC(=O)N[C@H](Cc3ccc(O)cc3)C(=O)N2C)cc1` [CXCR4-SiFA-7 [Ga]] (I: X5-[d(hCys)](X2)[dDap](DOTA)[Ahx][dDap][dR][dA][4Abz] / II: cyclo([dY][dNMeOrn]R[2Nal]G); amide I:C-II:2), in data set [1] (30 min), the “Internalized in relation to 125I-Fc-131 [%]” value (“Internalized in relation … [%]” below) is reported as 837 ± 51.4%, the “Cell-bound [%]” value is 0.11 ± 0.29% and the “Internalized [%]” value worked out at 38.9 ± 1.09%. Also, in data set [1] (90 min), the “Internalization [% Fc-131]” value worked out at 1029 % Fc-131, the “Internalized in relation … [%]” value was 1029 ± 66.7%, the “Cell-bound [%]” value is listed as 0 ± 0.41% and the “Internalized [%]” value is 50.0 ± 1.12%. In addition, in data set [2], the logD7.4 is listed as −1.95 ± 0.05 (8). Also, in data set [3] (setting [7]), the “uptake in liver compared to biodistribution with 36 pmol” value is on record as 70%, the “uptake in spleen compared to biodistribution with 36 pmol” value amounted to 61% and the “uptake in tumor compared to biodistribution with 36 pmol” value came to 40%. Moreover, in data set [3] (setting [8]), the “Blood activity level raised by” value is 310%, the “tumor uptake compared to un-supplemented injection” value turned out to be 180%, the “uptake in liver compared to un-supplemented injection” value is listed as 121% and the “uptake in muscle compared to un-supplemented injection” value is recorded as 226%. Further, in data set [3] (setting [8]), the “uptake in pancreas compared to un-supplemented injection” value was found to be 196% and the “uptake in spleen compared to un-supplemented injection” value came to 114%. The molecule also gave a concentration for half-maximal inhibition (IC50) in data set [4] (unlabeled or cold (natGa/natLu) compound vs 125I-Fc-131, Jurkat cells) of 6.23 ± 1.57 nM.

In the case of `C[C@@H](NC(=O)[C@@H](CCCNC(=N)N)NC(=O)[C@@H](CO)NC(=O)[C@@H](CO)NC(=O)[C@@H](CO)NC(=O)CS)C(=O)Nc1ccc(C(=O)NCCC[C@@H]2C(=O)N[C@@H](CCCNC(=N)N)C(=O)N[C@@H](Cc3ccc4ccccc4c3)C(=O)NCC(=O)N[C@H](Cc3ccc(O)cc3)C(=O)N2C)cc1` [Tc-CXCR4-1] (I: Mercaptoacetyl-[dS][dS][dS][dR][dA][4Abz] / II: cyclo([dY][dNMeOrn]R[2Nal]G); amide I:C-II:2), the tissue uptake at 1 h in data set [5] (Blood, read-out: % iD/g Blood) amounted to 0.83 %ID/g; in data set [5] (Heart, read-out: % iD/g Heart), 0.54 %ID/g; in data set [5] (Intestine, read-out: % iD/g Intestine) it was 1.12 %ID/g; in data set [5] (Kidney, read-out: % iD/g Kidney) it was 4 %ID/g; in data set [5] (Liver, read-out: % iD/g Liver), 3.54 %ID/g; in data set [5] (Lung, read-out: % iD/g Lung), 1.79 %ID/g. For the same molecule, the tissue uptake at 1 h was 0.16 %ID/g in data set [5] (Muscle, read-out: % iD/g Muscle); 0.22 %ID/g in data set [5] (Pancreas, read-out: % iD/g Pancreas); 1.09 %ID/g in data set [5] (Spleen, read-out: % iD/g Spleen); 0.86 %ID/g in data set [5] (Stomach, read-out: % iD/g Stomach); 1.41 %ID/g in data set [5] (Tumor, read-out: % iD/g Tumor). Further, the concentration for half-maximal inhibition (IC50) in data set [4] came out at 20.6 ± 7.52 nM.

As to `C[C@@H](NC(=O)[C@@H](CCCNC(=N)N)NC(=O)[C@@H](CN)NC(=O)[C@@H](CO)NC(=O)[C@@H](CCSC1OC(CO)C(O)C(O)C1O)NC(=O)[C@@H](CCSC1OC(CO)C(O)C(O)C1O)NC(=O)CS)C(=O)Nc1ccc(C(=O)NCCC[C@@H]2C(=O)N[C@@H](CCCNC(=N)N)C(=O)N[C@@H](Cc3ccc4ccccc4c3)C(=O)NCC(=O)N[C@H](Cc3ccc(O)cc3)C(=O)N2C)cc1` (some centres unmarked) [Tc-CXCR4-10] (I: Mercaptoacetyl-[d(hCys)](X4)[d(hCys)](X4)[dS][dDap][dR][dA][4Abz] / II: cyclo([2Nal]G[dY][dNMeOrn]R); amide I:C-II:4), in data set [1] (30 min), the “Internalized in relation … [%]” value worked out at 226 ± 10.2%, the “Cell-bound [%]” value is 6.75 ± 0.76% and the “Internalized [%]” value was 18.8± 0.66%. Moreover, in data set [1] (90 min), the “Internalization [% Fc-131]” value was 267 (90 min) % Fc-131, the “Internalized in relation … [%]” value amounted to 267 ± 8.94%, the “Cell-bound [%]” value came to 6.06 ± 0.34% and the “Internalized [%]” value came out at 31.7 ± 0.52%. The logD7.4 in data set [2] is −2.32 ± 0.02 (7). The half-maximal inhibitory concentration (IC50) in data set [6] was found to be 5.13 ± 1.81 nM.

Consider `C[C@@H](NC(=O)[C@@H](CCCNC(=N)N)NC(=O)[C@@H](CN)NC(=O)[C@@H](CNC(=O)C(CNCCN)CNCCN)NC(=O)CCC(NC(=O)N[C@H](CCC(=O)O)C(=O)O)C(=O)O)C(=O)Nc1ccc(C(=O)NCCC[C@@H]2C(=O)N[C@@H](CCCNC(=N)N)C(=O)N[C@@H](Cc3ccc4ccccc4c3)C(=O)NCC(=O)N[C@H](Cc3ccc(O)cc3)C(=O)N2C)cc1` (some centres unmarked) [Tc-CXCR4-15] (cyclo([2Nal]G[dY][dNMeOrn]([4Abz-dA-dR-dDap-X8])R)), for which, in data set [1] (30 min), the “Internalized in relation … [%]” value amounted to 214 ± 11.7%, the “Cell-bound [%]” value is recorded as 4.35 ± 0.16% and the “Internalized [%]” value stood at 12.6 ± 0.34%. In data set [1] (90 min), the “Internalization [% Fc-131]” value is 232 (90 min) % Fc-131, the “Internalized in relation … [%]” value is listed as 232 ± 15.3%, the “Cell-bound [%]” value came to 3.42 ± 0.27% and the “Internalized [%]” value was 17.9 ± 1.06%. For the same molecule, in data set [2], the logD7.4 is on record as −3.60 ± 0.02 (8). For the same molecule, the IC50 in data set [6] was 3.69 ± 1.32 nM.

For `CC[C@H](C)[C@@H]([C@@H](CC(=O)N1CCC[C@H]1[C@H](OC)[C@@H](C)C(=O)N[C@H](C)C(O)c1ccccc1)OC)N(C)C(=O)[C@@H](NC(=O)[C@H](C(C)C)N(C)C(=O)OCc1ccc(NC(=O)[C@H](CCCNC(N)=O)NC(=O)[C@@H](NC(=O)CCCCCN2C(=O)CC(SCC[C@@H](N)C(=O)N[C@H](CCCNC(=N)N)C(=O)N[C@H](C)C(=O)Nc3ccc(C(=O)NCCC[C@@H]4C(=O)N[C@@H](CCCNC(=N)N)C(=O)N[C@@H](Cc5ccc6ccccc6c5)C(=O)NCC(=O)N[C@H](Cc5ccc(O)cc5)C(=O)N4C)cc3)C2=O)C(C)C)cc1)C(C)C` (some centres unmarked) [^125I-CXCR4-MMAE −2], the “Cell-bound [%]” value came to 1.56 ± 0.78% in data set [1] (10 min), 2.09 ± 0.64% in data set [1] (30 min), 0.73 ± 0.54% in data set [1] (60 min) and 0.27 ± 0.35% in data set [1] (120 min). Also, the “Internalized [%]” value in data set [1] (10 min) is reported as 2.55 ± 0.34%; in data set [1] (30 min), 7.78 ± 0.58%; in data set [1] (60 min), 14.6 ± 0.89%; in data set [1] (120 min), 27.9 ± 1.14%. In data set [3] (Blood, Jurkat xenograft, CB-17 SCID female mice), the “% iD/g Blood” value is 2.28 % iD/g. Further, the “% iD/g Bone” value in data set [3] (Bone, Jurkat xenograft, CB-17 SCID female mice) is 0.80 % iD/g. Also, in data set [3] (Heart, Jurkat xenograft, CB-17 SCID female mice), the “% iD/g Heart” value is listed as 1.31 % iD/g. The “% iD/g Intestine” value in data set [3] (Intestine, Jurkat xenograft, CB-17 SCID female mice) is 1.13 % iD/g. Further, the “% iD/g Kidney” value in data set [3] (Kidney, Jurkat xenograft, CB-17 SCID female mice) is recorded as 18.3 % iD/g. For the same molecule, in data set [3] (Liver, Jurkat xenograft, CB-17 SCID female mice), the “% iD/g Liver” value amounted to 27.8 % iD/g. In data set [3] (Lung, Jurkat xenograft, CB-17 SCID female mice), the “% iD/g Lung” value was found to be 3.67 % iD/g. The “% iD/g Muscle” value in data set [3] (Muscle, Jurkat xenograft, CB-17 SCID female mice) stood at 0.33 % iD/g. Further, the “% iD/g Pancreas” value in data set [3] (Pancreas, Jurkat xenograft, CB-17 SCID female mice) is given as 0.80 % iD/g. The “% iD/g Spleen” value in data set [3] (Spleen, Jurkat xenograft, CB-17 SCID female mice) worked out at 4.31 % iD/g. Also, in data set [3] (Stomach, Jurkat xenograft, CB-17 SCID female mice), the “% iD/g Stomach” value worked out at 1.85 % iD/g. Further, the “% iD/g Tumor” value in data set [3] (Tumor, Jurkat xenograft, CB-17 SCID female mice) is on record as 2.41 % iD/g.
